How the values were obtained:
Test in all cases: KinomeScan kinase profiling
Format in all cases: binding
PIP5K1A = biological target: T1, PIP5K1A (Homo sapiens, UniProt Q99755)
T1 construct: purchased Ambit Biosciences Corp (KinomeScan); host or cells: E. coli host derived from BL21, infected with T7 phage
Summary of the method: (§1)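 Kinases were expressed as T7 phage fusions in a BL21-derived E. coli host and the cleared lysates were used. Ligand beads were blocked with biotin and buffer (1% BSA, 0.05% Tween 20, 1 mM DTT). Compounds came from 40× DMSO stocks, and phage in the eluates was titred by qPCR.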

DRAK1 = biological target: T2, DRAK1 (Homo sapiens, UniProt Q9UEE5)
T2 construct: purchased Ambit Biosciences Corp (KinomeScan); host or cells: T7 phage in E. coli host derived from BL21
Summary of the method: as §1

EGFR (L861Q) = biological target: T3, EGFR (L861Q) (Homo sapiens, UniProt P00533, L861Q)
T3 construct: host or cells: E. coli host derived from BL21, T7 phage lysate
Summary of the method: as §1

PCTK3 = biological target: T4, PCTK3 (Homo sapiens, UniProt Q07002)
T4 construct: host or cells: E. coli host derived from the BL21 strain, infected with T7 phage
Summary of the method: as §1

CAMK1G = biological target: T5, CAMK1G (Homo sapiens, UniProt Q96NX5)
T5 construct: purchased Ambit Biosciences Corp (KinomeScan); host or cells: E. coli host derived from the BL21 strain, T7 phage
Summary of the method: as §1

NEK9 = biological target: T6, NEK9 (Homo sapiens, UniProt Q8TD19)
T6 construct: host or cells: T7 phage in E. coli host derived from BL21
Summary of the method: as §1

DRAK2 = biological target: T7, DRAK2 (Homo sapiens, UniProt O94768)
T7 construct: purchased Ambit Biosciences Corp (KinomeScan); host or cells: T7 phage in E. coli host derived from BL21
Summary of the method: as §1

PIM2 = biological target: T8, PIM2 (Homo sapiens, UniProt Q9P1W9)
T8 construct: purchased Ambit Biosciences Corp (KinomeScan); host or cells: E. coli host derived from BL21, infected with T7 phage
Summary of the method: as §1

MAP4K4 = biological target: T9, MAP4K4 (Homo sapiens, UniProt O95819)
T9 construct: host or cells: E. coli derived from BL21, infected with T7 phage
Summary of the method: as §1

NLK = biological target: T10, NLK (Homo sapiens, UniProt Q9UBE8)
T10 construct: host or cells: E. coli host derived from the BL21 strain, infected with T7 phage
Summary of the method: as §1

PYK2 = biological target: T11, PYK2 (Homo sapiens, UniProt Q14289)
T11 construct: host or cells: E. coli host derived from BL21, T7 phage lysate
Summary of the method: as §1

PIK3CA (E545K) = biological target: T12, PIK3CA (E545K) (Homo sapiens, UniProt P42336, E545K)
T12 construct: host or cells: E. coli host derived from the BL21 strain, infected with T7 phage
Summary of the method: as §1

STK36 = biological target: T13, STK36 (Homo sapiens, UniProt Q9NRP7)
T13 construct: host or cells: E. coli host derived from the BL21 strain, T7 phage lysate
Summary of the method: as §1

ERBB4 = biological target: T14, ERBB4 (Homo sapiens, UniProt Q15303)
T14 construct: host or cells: E. coli host derived from BL21, T7 phage lysate
Summary of the method: as §1

MKNK1 = biological target: T15, MKNK1 (Homo sapiens, UniProt Q9BUB5)
T15 construct: host or cells: T7 phage in E. coli host derived from BL21
Summary of the method: as §1

MLCK = biological target: T16, MLCK (Homo sapiens, UniProt Q32MK0)
T16 construct: host or cells: T7 phage in E. coli host derived from BL21
Summary of the method: as §1

EPHB2 = biological target: T17, EPHB2 (Homo sapiens, UniProt P29323)
T17 construct: host or cells: E. coli host derived from BL21, T7 phage lysate
Summary of the method: as §1

HCK = biological target: T18, HCK (Homo sapiens, UniProt P08631)
T18 construct: host or cells: E. coli host derived from BL21, infected with T7 phage
Summary of the method: as §1

CAMK2D = biological target: T19, CAMK2D (Homo sapiens, UniProt Q13557)
T19 construct: purchased Ambit Biosciences Corp (KinomeScan); host or cells: E. coli host derived from the BL21 strain, T7 phage
Summary of the method: as §1

MKNK2 = biological target: T20, MKNK2 (Homo sapiens, UniProt Q9HBH9)
T20 construct: host or cells: T7 phage in E. coli host derived from BL21
Summary of the method: as §1

PRKX = biological target: T21, PRKX (Homo sapiens, UniProt P51817)
T21 construct: host or cells: E. coli host derived from BL21, T7 phage lysate
Summary of the method: as §1

ASK1 = biological target: T22, ASK1 (Homo sapiens, UniProt Q99683)
T22 construct: purchased Ambit Biosciences Corp (KinomeScan); host or cells: E. coli host derived from the BL21 strain, T7 phage
Summary of the method: as §1

MAP4K2 = biological target: T23, MAP4K2 (Homo sapiens, UniProt Q12851)
T23 construct: host or cells: E. coli derived from BL21, infected with T7 phage
Summary of the method: as §1

EPHA3 = biological target: T24, EPHA3 (Homo sapiens, UniProt P29320)
T24 construct: host or cells: E. coli host derived from BL21, T7 phage lysate
Summary of the method: as §1

T1 sequence (Q99755 whole entry): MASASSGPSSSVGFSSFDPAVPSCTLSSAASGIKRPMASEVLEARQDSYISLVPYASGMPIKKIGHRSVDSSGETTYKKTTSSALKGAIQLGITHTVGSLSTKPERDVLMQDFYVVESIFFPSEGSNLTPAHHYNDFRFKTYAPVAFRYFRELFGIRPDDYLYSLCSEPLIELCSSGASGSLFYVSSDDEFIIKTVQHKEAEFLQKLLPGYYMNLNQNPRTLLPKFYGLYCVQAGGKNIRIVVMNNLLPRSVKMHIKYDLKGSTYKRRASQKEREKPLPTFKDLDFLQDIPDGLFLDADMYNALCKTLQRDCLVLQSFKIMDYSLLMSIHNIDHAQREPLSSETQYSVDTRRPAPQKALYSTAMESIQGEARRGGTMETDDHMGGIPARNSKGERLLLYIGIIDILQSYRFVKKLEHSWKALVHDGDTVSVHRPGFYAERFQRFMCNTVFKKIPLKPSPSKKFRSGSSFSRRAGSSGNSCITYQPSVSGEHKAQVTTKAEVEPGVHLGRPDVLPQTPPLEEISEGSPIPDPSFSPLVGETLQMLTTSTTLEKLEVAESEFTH
T5 sequence (Q96NX5 whole entry): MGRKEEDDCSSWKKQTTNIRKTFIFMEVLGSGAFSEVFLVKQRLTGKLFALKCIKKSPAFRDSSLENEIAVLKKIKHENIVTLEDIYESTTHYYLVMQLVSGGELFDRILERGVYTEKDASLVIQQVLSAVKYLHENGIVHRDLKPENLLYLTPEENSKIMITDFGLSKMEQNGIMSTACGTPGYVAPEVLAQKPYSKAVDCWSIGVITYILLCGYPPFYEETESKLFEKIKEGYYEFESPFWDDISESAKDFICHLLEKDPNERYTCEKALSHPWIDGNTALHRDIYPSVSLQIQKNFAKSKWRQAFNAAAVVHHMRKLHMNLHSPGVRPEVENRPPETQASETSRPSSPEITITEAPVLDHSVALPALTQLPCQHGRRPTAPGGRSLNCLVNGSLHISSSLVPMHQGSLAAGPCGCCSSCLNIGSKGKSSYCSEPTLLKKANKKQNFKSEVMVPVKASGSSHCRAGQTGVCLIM
T16 sequence (Q32MK0 whole entry): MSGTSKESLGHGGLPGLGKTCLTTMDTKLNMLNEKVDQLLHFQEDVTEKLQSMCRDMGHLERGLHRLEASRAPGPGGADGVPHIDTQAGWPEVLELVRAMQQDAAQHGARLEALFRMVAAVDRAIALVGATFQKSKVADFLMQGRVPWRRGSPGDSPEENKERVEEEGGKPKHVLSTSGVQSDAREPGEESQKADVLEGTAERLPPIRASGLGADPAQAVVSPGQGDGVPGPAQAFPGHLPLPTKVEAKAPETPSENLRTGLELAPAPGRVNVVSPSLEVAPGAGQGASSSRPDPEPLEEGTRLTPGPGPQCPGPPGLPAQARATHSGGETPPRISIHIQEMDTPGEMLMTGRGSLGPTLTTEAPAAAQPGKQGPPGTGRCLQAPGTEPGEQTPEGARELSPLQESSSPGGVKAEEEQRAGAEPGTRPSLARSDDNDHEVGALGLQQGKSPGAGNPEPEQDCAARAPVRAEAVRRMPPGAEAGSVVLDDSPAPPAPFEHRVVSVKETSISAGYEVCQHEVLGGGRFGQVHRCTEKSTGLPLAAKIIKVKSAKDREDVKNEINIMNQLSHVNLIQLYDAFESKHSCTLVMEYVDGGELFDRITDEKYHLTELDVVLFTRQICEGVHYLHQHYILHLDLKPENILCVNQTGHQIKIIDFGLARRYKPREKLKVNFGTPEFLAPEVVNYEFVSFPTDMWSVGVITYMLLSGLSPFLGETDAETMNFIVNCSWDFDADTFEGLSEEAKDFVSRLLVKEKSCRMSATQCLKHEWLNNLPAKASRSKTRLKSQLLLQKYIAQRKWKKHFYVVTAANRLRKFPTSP
T17 sequence (P29323 19-1055): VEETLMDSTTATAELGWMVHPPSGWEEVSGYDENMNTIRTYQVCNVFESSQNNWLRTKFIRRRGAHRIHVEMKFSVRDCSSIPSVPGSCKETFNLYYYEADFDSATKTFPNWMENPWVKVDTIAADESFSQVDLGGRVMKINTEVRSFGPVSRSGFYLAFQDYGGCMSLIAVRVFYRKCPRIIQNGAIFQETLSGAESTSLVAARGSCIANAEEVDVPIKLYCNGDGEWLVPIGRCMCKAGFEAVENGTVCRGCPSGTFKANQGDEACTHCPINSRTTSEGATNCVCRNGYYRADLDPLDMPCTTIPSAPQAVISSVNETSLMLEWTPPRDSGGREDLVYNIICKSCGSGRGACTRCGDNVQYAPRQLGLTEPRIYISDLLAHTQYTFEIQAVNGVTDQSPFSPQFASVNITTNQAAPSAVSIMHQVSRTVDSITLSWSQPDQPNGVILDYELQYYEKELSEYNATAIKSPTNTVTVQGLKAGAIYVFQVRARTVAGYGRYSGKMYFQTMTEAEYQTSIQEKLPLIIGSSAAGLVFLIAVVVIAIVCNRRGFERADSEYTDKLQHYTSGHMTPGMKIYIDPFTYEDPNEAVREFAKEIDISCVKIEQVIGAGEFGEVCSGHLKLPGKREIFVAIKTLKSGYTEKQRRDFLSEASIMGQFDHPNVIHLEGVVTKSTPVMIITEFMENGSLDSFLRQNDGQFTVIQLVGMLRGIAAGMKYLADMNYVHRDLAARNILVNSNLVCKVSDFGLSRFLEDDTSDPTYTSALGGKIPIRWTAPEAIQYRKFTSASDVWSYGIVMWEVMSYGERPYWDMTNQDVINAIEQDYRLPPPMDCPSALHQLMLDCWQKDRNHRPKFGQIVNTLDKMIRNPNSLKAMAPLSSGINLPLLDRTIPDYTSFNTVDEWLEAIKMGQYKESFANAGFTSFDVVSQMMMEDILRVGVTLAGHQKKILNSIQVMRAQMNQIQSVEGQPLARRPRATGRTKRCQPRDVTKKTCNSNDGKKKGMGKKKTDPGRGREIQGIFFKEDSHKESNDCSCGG
T23 sequence (Q12851 whole entry): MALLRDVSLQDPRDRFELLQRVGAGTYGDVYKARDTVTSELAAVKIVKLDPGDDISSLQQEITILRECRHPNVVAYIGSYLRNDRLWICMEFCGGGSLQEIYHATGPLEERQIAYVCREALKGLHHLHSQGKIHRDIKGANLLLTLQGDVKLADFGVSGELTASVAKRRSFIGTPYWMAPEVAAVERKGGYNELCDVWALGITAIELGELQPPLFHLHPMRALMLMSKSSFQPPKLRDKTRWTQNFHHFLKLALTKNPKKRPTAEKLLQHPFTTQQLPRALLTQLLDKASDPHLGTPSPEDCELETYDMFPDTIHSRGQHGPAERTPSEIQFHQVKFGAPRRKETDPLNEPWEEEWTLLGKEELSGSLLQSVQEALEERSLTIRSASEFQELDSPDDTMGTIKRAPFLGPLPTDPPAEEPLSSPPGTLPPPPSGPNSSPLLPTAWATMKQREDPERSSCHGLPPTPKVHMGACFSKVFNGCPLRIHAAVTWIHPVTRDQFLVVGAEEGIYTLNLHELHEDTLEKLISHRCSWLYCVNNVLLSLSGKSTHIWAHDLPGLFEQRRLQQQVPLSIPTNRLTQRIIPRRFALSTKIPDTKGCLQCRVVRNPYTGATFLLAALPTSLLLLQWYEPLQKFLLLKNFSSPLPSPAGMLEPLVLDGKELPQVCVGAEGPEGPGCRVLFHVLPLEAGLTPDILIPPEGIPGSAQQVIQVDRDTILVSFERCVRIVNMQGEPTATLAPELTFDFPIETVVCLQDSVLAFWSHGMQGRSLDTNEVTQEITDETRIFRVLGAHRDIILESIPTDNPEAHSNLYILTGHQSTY
T11 sequence (Q14289 whole entry): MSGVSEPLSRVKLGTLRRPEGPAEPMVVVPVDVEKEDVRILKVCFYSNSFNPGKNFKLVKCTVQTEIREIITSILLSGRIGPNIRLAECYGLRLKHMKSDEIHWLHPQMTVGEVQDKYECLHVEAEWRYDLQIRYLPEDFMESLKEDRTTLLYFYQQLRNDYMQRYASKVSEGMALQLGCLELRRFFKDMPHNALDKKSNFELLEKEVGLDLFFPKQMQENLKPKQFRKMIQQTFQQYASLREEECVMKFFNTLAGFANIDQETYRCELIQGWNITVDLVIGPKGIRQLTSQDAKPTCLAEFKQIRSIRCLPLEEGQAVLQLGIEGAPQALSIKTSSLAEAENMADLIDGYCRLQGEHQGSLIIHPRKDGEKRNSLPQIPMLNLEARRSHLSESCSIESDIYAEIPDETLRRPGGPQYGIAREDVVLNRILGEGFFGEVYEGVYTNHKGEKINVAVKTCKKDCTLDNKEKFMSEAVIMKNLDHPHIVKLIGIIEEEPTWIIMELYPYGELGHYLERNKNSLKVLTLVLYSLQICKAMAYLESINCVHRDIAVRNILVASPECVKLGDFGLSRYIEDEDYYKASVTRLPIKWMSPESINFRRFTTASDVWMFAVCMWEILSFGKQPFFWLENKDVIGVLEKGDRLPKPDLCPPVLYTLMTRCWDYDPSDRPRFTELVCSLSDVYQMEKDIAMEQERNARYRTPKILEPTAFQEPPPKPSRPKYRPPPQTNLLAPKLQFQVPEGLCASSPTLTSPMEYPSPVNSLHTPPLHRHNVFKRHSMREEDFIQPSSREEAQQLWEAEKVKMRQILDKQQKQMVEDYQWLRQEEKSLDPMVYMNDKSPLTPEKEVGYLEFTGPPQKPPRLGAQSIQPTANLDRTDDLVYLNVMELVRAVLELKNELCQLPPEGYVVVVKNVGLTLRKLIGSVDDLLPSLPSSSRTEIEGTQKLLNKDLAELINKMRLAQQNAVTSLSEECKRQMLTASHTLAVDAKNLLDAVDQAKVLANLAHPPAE
T8 sequence (Q9P1W9 whole entry): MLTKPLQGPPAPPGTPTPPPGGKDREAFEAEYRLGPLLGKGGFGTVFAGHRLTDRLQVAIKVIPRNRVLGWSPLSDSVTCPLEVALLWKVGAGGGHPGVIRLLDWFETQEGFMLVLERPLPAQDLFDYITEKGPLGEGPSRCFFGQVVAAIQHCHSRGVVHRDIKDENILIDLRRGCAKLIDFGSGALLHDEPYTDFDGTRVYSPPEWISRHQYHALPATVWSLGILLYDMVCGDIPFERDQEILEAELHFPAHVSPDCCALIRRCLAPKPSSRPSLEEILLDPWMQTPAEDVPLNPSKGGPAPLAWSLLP

C#Cc1cccc(Nc2ncnc3cc(OC)c(OCCCN4CCOCC4)cc23)c1 [NRC-2694, N-(3-ethylnylphenyl)-7-methoxy-6-[3-(4-morpholinyl)propoxy]-4-quinazolinamine]
% Ctrl @ 10000 nM (PIP5K1A): 61 % Ctrl | % Ctrl @ 10000 nM (DRAK1): 51 % Ctrl | % Ctrl @ 10000 nM (EGFR (L861Q)): 0 % Ctrl | % Ctrl @ 10000 nM (PCTK3): 82 % Ctrl | % Ctrl @ 10000 nM (CAMK1G): 75 % Ctrl | % Ctrl @ 10000 nM (NEK9): 85 % Ctrl | % Ctrl @ 10000 nM (DRAK2): 58 % Ctrl | % Ctrl @ 10000 nM (PIM2): 83 % Ctrl | % Ctrl @ 10000 nM (MAP4K4): 20 % Ctrl | % Ctrl @ 10000 nM (NLK): 55 % Ctrl | % Ctrl @ 10000 nM (PYK2): 71 % Ctrl | % Ctrl @ 10000 nM (PIK3CA (E545K)): 100 % Ctrl | % Ctrl @ 10000 nM (STK36): 4.6 % Ctrl | % Ctrl @ 10000 nM (ERBB4): 3.3 % Ctrl | % Ctrl @ 10000 nM (MKNK1): 1.2 % Ctrl | % Ctrl @ 10000 nM (MLCK): 77 % Ctrl | % Ctrl @ 10000 nM (EPHB2): 83 % Ctrl | % Ctrl @ 10000 nM (HCK): 17 % Ctrl | % Ctrl @ 10000 nM (CAMK2D): 35 % Ctrl | % Ctrl @ 10000 nM (MKNK2): 16 % Ctrl | % Ctrl @ 10000 nM (PRKX): 100 % Ctrl | % Ctrl @ 10000 nM (ASK1): 100 % Ctrl | % Ctrl @ 10000 nM (MAP4K2): 48 % Ctrl | % Ctrl @ 10000 nM (EPHA3): 56 % Ctrl

From patent publication US9050341B2, “Methods of treating drug resistant and other tumors by administering 6,7-dialkoxy quinazoline derivatives” (NATCO PHARMA LIMITED, priority 2009, dated 2015)
